From PubChem BioAssay AID248 (DTP/NCI, 2004)
Where “and” joins values, the source holds several entries; their conditions need not be identical. Equal values may be shown once. Inconclusive results and toxic doses are left out. Cut-off read from the data, not from the text of the source: active = T/C of 150% or more; inactive = T/C below 125%.

System: L1210 leukemia ip in BDF1 mice, survival T/C
Assay: NCI In Vivo Anticancer Drug Screen. Data for tumor model L1210 Leukemia (intraperitoneal) in B6D2F1 (BDF1) mice
Details: endpoint: mean survival time, higher = longer survival
Summary of the method: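 Each compound was tested against a transplantable tumor grown in mice. The endpoint was survival, with treated animals benchmarked against vehicle controls as a simple ratio.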

[1] = dose: 100.0 mg/kg/injection, schedule: Q01DX009 (ip), vehicle: Klucel (hydroxypropylcellulose) (HPC)
[2] = dose: 200.0 mg/kg/injection, schedule: Q01DX009 (ip), vehicle: Klucel (hydroxypropylcellulose) (HPC)
[3] = dose: 100.0 mg/kg/injection, schedule: Q01DX001 (ip), vehicle: saline
[4] = dose: 200.0 mg/kg/injection, schedule: Q01DX001 (ip), vehicle: saline
[5] = dose: 400.0 mg/kg/injection, schedule: Q01DX001 (ip), vehicle: saline
[6] = dose: 100.0 mg/kg/injection, schedule: Q01DX009 (ip), vehicle: saline
[7] = dose: 100.0 mg/kg/injection, schedule: Q04DX003 (ip), vehicle: saline
[8] = dose: 200.0 mg/kg/injection, schedule: Q04DX003 (ip), vehicle: saline
[9] = dose: 50.0 mg/kg/injection, schedule: Q01DX009 (ip), vehicle: saline with Tween-80
[10] = dose: 100.0 mg/kg/injection, schedule: Q01DX009 (ip), vehicle: saline with Tween-80
[11] = dose: 50.0 mg/kg/injection, schedule: Q01DX009 (ip), vehicle: saline
[12] = dose: 50.0 mg/kg/injection, schedule: Q01DX001 (ip), vehicle: carboxymethylcellulose (CMC)
[13] = dose: 100.0 mg/kg/injection, schedule: Q01DX001 (ip), vehicle: carboxymethylcellulose (CMC)
[14] = dose: 50.0 mg/kg/injection, schedule: Q01DX009 (ip), vehicle: Klucel (hydroxypropylcellulose) (HPC)
[15] = dose: 100.0 mg/kg/injection, schedule: Q04DX002 (ip), vehicle: Klucel (hydroxypropylcellulose) (HPC)
[16] = dose: 200.0 mg/kg/injection, schedule: Q04DX002 (ip), vehicle: Klucel (hydroxypropylcellulose) (HPC)

Measured: T/C

COC(=O)c1nnc(C(=O)OC)nn1
inactive: dose: 100.0 mg/kg/injection, schedule: Q04DX002 (ip), vehicle: saline 96 % of control | dose: 200.0 mg/kg/injection, schedule: Q04DX002 (ip), vehicle: saline 115 % of control | dose: 400.0 mg/kg/injection, schedule: Q04DX002 (ip), vehicle: saline 96 % of control

Nc1nnc(N)c2nc(-c3ccccc3)c(-c3ccccc3)nc12
inactive: [1] 101 % of control | [2] 101 % of control

CCOC(=O)N(CCC(=O)OC(C)(C)C)CC(=O)OC(C)(C)C
inactive: dose: 75.0 mg/kg/injection, schedule: Q01DX001 (ip), vehicle: saline 92 % of control | dose: 150.0 mg/kg/injection, schedule: Q01DX001 (ip), vehicle: saline 95 % of control | dose: 300.0 mg/kg/injection, schedule: Q01DX001 (ip), vehicle: saline 101 % of control

CC(C)OC(=O)C(C)OC(=O)C1CCCCC1 (centres undefined)
inactive: [3] 98 % of control | [4] 97 % of control | [5] 93 % of control

CCC(C)(O)C#CC(C)(O)CC (centres undefined)
inactive: [3] 100 % of control | [6] 101 % of control | [7] 105 % of control | [4] 106 % of control | dose: 200.0 mg/kg/injection, schedule: Q01DX009 (ip), vehicle: saline 100 % of control | [8] 105 % of control | [5] 102 % of control | dose: 400.0 mg/kg/injection, schedule: Q04DX003 (ip), vehicle: saline 100 % of control

O=C(NC1CC1(c1ccccc1)c1ccccc1)NC1CC1(c1ccccc1)c1ccccc1 (centres undefined)
inactive: dose: 300.0 mg/kg/injection, schedule: Q01DX001 (ip), vehicle: other 86 % of control

O=C1OC(=O)c2c1cccc2[N+](=O)[O-]
inactive: dose: 25.0 mg/kg/injection, schedule: Q01DX009 (ip), vehicle: saline with Tween-80 97 % of control | [9] 90 % of control | [10] 94 % of control and 88 % of control

Cc1cccc(C)c1NC(=O)OCCSc1ccc(Cl)cc1
inactive: [9] 115 % of control | [10] 96 % of control | dose: 200.0 mg/kg/injection, schedule: Q01DX009 (ip), vehicle: saline with Tween-80 93 % of control

CNCCN(C)CCNC
inactive: [11] 104 % of control | [6] 101 % of control | [7] 103 % of control | [8] 96 % of control

c1cc2c(c3c1CCCC3)CCCC2
inactive: [12] 92 % of control | [11] 101 % of control | [13] 97 % of control | [6] 94 % of control | [7] 91 % of control | dose: 200.0 mg/kg/injection, schedule: Q01DX001 (ip), vehicle: carboxymethylcellulose (CMC) 91 % of control | [8] 101 % of control | dose: 400.0 mg/kg/injection, schedule: Q01DX001 (ip), vehicle: carboxymethylcellulose (CMC) 94 % of control

Nc1nc(-c2ccccc2)cc(=O)[nH]1
inactive: [1] 88 % of control | [2] 97 % of control | dose: 400.0 mg/kg/injection, schedule: Q01DX009 (ip), vehicle: Klucel (hydroxypropylcellulose) (HPC) 93 % of control

NC(=O)c1cc(Br)ccc1O
inactive: [14] 89 % of control | [1] 92 % of control | [2] 95 % of control

COC(=O)/C=C(\C)Nc1ccc(Cc2ccc(N/C(C)=C/C(=O)OC)cc2)cc1
inactive: [3] 95 % of control | [4] 86 % of control

C(=N\N=c1\[nH][nH]/c(=N/N=C/c2ccc(-c3ccccc3)cc2)c2ccccc12)/c1ccc(-c2ccccc2)cc1
inactive: dose: 50.0 mg/kg/injection, schedule: Q01DX001 (ip), vehicle: saline 110 % of control | [3] 98 % of control | [4] 95 % of control | [5] 98 % of control

NC(N)=NC(N)=Nc1ccccc1Br
inactive: [14] 106 % of control | [1] 104 % of control | [15] 107 % of control | dose: 100.0 mg/kg/injection, schedule: Q04DX003 (ip), vehicle: Klucel (hydroxypropylcellulose) (HPC) 98 % of control | [16] 104 % of control | dose: 200.0 mg/kg/injection, schedule: Q04DX003 (ip), vehicle: Klucel (hydroxypropylcellulose) (HPC) 110 % of control

CCOC(=O)C(CC1CC(=O)Nc2ccccc21)C(=O)OCC (centres undefined)
inactive: [3] 95 % of control | [4] 97 % of control | [5] 101 % of control

Cc1cccnc1N1CCNC1=O
inactive: dose: 25.0 mg/kg/injection, schedule: Q04DX003 (ip), vehicle: saline 92 % of control | dose: 50.0 mg/kg/injection, schedule: Q04DX003 (ip), vehicle: saline 103 % of control | [7] 96 % of control and 117 % of control

CC(=O)CC(=O)C(F)(F)F.CC(=O)CC(=O)C(F)(F)F.[Mn]
inactive: dose: 25.0 mg/kg/injection, schedule: Q01DX009 (ip), vehicle: Klucel (hydroxypropylcellulose) (HPC) 106 % of control | dose: 50.0 mg/kg/injection, schedule: Q01DX005 (ip), vehicle: Klucel (hydroxypropylcellulose) (HPC) 97 % of control | [14] 106 % of control | dose: 100.0 mg/kg/injection, schedule: Q01DX005 (ip), vehicle: Klucel (hydroxypropylcellulose) (HPC) 93 % of control | [1] 106 % of control | [15] 104 % of control | [16] 96 % of control

O=C(O)C1C(c2ccccc2)=C(c2ccccc2)C(c2ccccc2)=C(c2ccccc2)C1C(=O)O (centres undefined)
inactive: [12] 89 % of control | [13] 92 % of control

C=C1C(=O)N2CCCC2C(=O)N1C (centres undefined)
inactive: dose: 75.0 mg/kg/injection, schedule: Q04DX002 (ip), vehicle: saline 94 % of control | dose: 150.0 mg/kg/injection, schedule: Q04DX002 (ip), vehicle: saline 97 % of control | dose: 300.0 mg/kg/injection, schedule: Q04DX002 (ip), vehicle: saline 87 % of control
